Columns and labels:
Format in all cases: cell-based
Set-up in all cases: key to Inhibition (%) of DNA synthesis: TOXIC (viability): TOXIC: the compound at this concentration killed the cells or greatly lowered their viability
[1] = tested on: MDA MB 435 (Metastic Human Breast Cancer Cell Line); experiment: Inhibition of DNA synthesis (3H-TdR uptake) / proliferation, MB-435; settings: for inhibition at 0.1 µg/mL / inhibition at 1 µg/mL / inhibition at 5 µg/mL / inhibition at 10 µg/mL / inhibition at 20 µg/mL: Homo sapiens, MDA-MB-435; for inhibition at 0.1 µg/mL: MB-435, 0.1 μg/mL; for inhibition at 0.1 µg/mL / inhibition at 1 µg/mL / inhibition at 5 µg/mL / Inhibition (%) of DNA synthesis: TOXIC (viability) / inhibition at 10 µg/mL / inhibition at 20 µg/mL: 48 h; for inhibition at 1 µg/mL: MB-435, 1 μg/mL
Procedure: (§1) Cells were cultured in the following media: 1) MDA MB 435 cells were cultured in Minimum Essential Media (MEM-HyClone, Logan, Utah) supplemented with 5% heat inactivated fetal bovine serum (HyClone), 2 mM glutamine (Sigma, St. Louis, Mo.), 1 mM sodium pyruvate (Sigma), 1X MEM Non-Essential Amino Acids (Sigma), 2X MEM Vitamins (Sigma), and 100 IU/mL penicillin/100 μg/mL streptomycin (HyClone); 2) MCF-7 McGuire cells were cultured in Minimum Essential Media (MEM-HyClone, Logan, Utah) supplemented with 5% heat inactivated fetal bovine serum (HyClone), 2 mM glutamine (Sigma, St. Louis, Mo.), and 100 IU/mL penicillin/100 μg/mL streptomycin (HyClone); 3) HL-60 cells were cultured in Iscoves Modified Dulbecco's Media (IMDM-HyClone, Logan, Utah) supplemented with 5% heat inactivated fetal bovine serum (HyClone), 2 mM glutamine (Sigma, St. Louis, Mo.), 1 mM sodium pyruvate (Sigma), 1X MEM Non-Essential Amino Acids (Sigma), 2X MEM Vitamins (Sigma), and 100 IU/mL penicillin/100 μg/mL streptomycin (HyClone); 2) MCF-7 McGuire cells were cultured in Minimum Essential Media (MEM-HyClone, Logan, Utah) supplemented with 5% heat inactivated fetal bovine serum (HyClone), 2 mM glutamine (Sigma, St. Louis, Mo.), and 100 IU/mL penicillin/100 μg/mL streptomycin (HyClone); 3) HL-60 cells were cultured in Iscoves Modified Dulbecco's Media (IMDM-HyClone, Logan, Utah) supplemented with 5% heat inactivated fetal bovine serum (HyClone), 2 mM glutamine (Sigma, St. Louis, Mo.), and 100 IU/mL penicillin/100 μg/mL streptomycin (HyClone).
(§2) All compounds were handled as if they were light sensitive. All compounds were initially dissolved in absolute ethanol and subsequently diluted to a final concentration of 0.5% ethanol with the appropriate medium.
(§3) For the bioassay, all cells were used at 2.5×10^5 /mL. Cells were treated with each of the compounds at concentrations of 20, 10, 5, 1, 0.1, and 0.01 μg/mL , and 200 μl of each treatment group were plated in quadruplicate in a 96 well culture plate (Corning, Corning N.Y.). Plates were done in duplicate, one plate to be used for viability testing and the other plate to examine ^3 H-TdR uptake (DNA synthesis).
(§4) Plates were cultured for 48 hours at 37° C., 5% CO2. Eight hours prior to the end of incubation, ^3 H-TdR was added to one of the duplicate plates and incubation continued for 8 hours. The cells were then harvested (trypsinization was required to harvest MDA MB 435 and MCF-7 McGuire). At the end of the incubation, the cells were removed from the wells (of the duplicate plate--no radioisotope added) and viability checked by the Trypan Blue Exclusion method. Percent viability and percent suppression of each treatment group were calculated.
(§5) With respect to the data shown in the Tables below, the data is arranged from greatest percent inhibition of DNA synthesis to lowest. […] "NT" refers to "Not Tested". The cells were cultured for 48 hours, pulsed 8 hours with tritiated thymidine, harvested and counted. MDA MB 435 is the abbreviation for the Metastic Human Breast Cancer Cell Line. MCF-7 McGuire is the abbreviation for the Estrogen Responsive Human Breast Cancer Cell Line and HL-60 is the Human Promyelocytic Leukemia Cell Line.

[2] = tested on: MCF-7 McGuire (Estrogen Responsive Human Breast Cancer Cell Line); experiment: Inhibition of DNA synthesis (3H-TdR uptake) / proliferation, MCF-7; settings: for inhibition at 0.1 µg/mL / inhibition at 1 µg/mL / inhibition at 5 µg/mL / inhibition at 10 µg/mL / inhibition at 20 µg/mL: Homo sapiens, MCF7; for inhibition at 0.1 µg/mL: MCF-7, 0.1 μg/mL; for inhibition at 1 µg/mL: MCF-7, 1 μg/mL
Procedure: as §1, §2, §3, §4, §5

[3] = tested on: HL-60 (Human Promyelocytic Leukemia Cell Line); experiment: Inhibition of DNA synthesis (3H-TdR uptake) / proliferation, HL-60; settings: for effect on HL-60 cells (in words): HL-60, no dose stated; for inhibition at 0.1 µg/mL / inhibition at 1 µg/mL / inhibition at 5 µg/mL / inhibition at 10 µg/mL / inhibition at 20 µg/mL: Homo sapiens; for inhibition at 0.1 µg/mL: HL-60, 0.1 μg/mL; for inhibition at 1 µg/mL: HL-60, 1 μg/mL; for inhibition at 5 µg/mL: HL-60, 5 μg/mL
Procedure: as §1, §2, §3, §4, §5

SMILES	inhibition at 0.1 µg/mL [1] [%]	inhibition at 1 µg/mL [1] [%]	inhibition at 5 µg/mL ([1]; MB-435, 5 μg/mL) [%]	inhibition at 0.1 µg/mL ([2]; 48 h) [%]	inhibition at 1 µg/mL ([2]; 48 h) [%]	inhibition at 5 µg/mL ([2]; MCF-7, 5 μg/mL, 48 h) [%]	inhibition at 10 µg/mL ([2]; MCF-7, 10 μg/mL, 48 h) [%]	inhibition at 0.1 µg/mL ([3]; 48 h) [%]	inhibition at 1 µg/mL ([3]; 48 h) [%]	inhibition at 5 µg/mL ([3]; 48 h) [%]	inhibition at 10 µg/mL ([3]; HL-60, 10 μg/mL, 48 h) [%]	inhibition at 10 µg/mL ([1]; MB-435, 10 μg/mL) [%]	inhibition at 20 µg/mL ([1]; MB-435, 20 μg/mL) [%]	inhibition at 20 µg/mL ([2]; MCF-7, 20 μg/mL, 48 h) [%]	inhibition at 20 µg/mL ([3]; HL-60, 20 μg/mL, 48 h) [%]	inhibition of proliferation (in words) ([3]; HL-60, 20 μg/mL)	also measured
CC(=O)Oc1c(C)c2c3c(c1C)CCCN3CCC2 [Compound 6, 9-Acetoxy-8,10-dimethyljulolidine]	3	0	80	0	10	13	37	3	24	59	89	–	–	–	–	–	inhibition of proliferation (in words) ([1]; MB-435, 5 μg/mL): significantly inhibited the proliferation; Inhibition (%) of DNA synthesis: TOXIC (viability) ([1]; MB-435, 10 μg/mL): TOXIC; Inhibition (%) of DNA synthesis: TOXIC (viability) ([1]; MB-435, 20 μg/mL): TOXIC; inhibition of proliferation (in words) ([1]; MB-435, 10-20 μg/mL): significantly inhibited the proliferation; inhibition of proliferation (in words) ([2]; MCF-7, 10 μg/mL): significantly inhibited the proliferation; Inhibition (%) of DNA synthesis: TOXIC (viability) ([2]; MCF-7, 20 μg/mL, 48 h): TOXIC; inhibition of proliferation (in words) ([2]; MCF-7, 10-20 μg/mL): significantly inhibited the proliferation; inhibition of proliferation (in words) ([3]; HL-60, 10 μg/mL): significantly inhibited the proliferation; Inhibition (%) of DNA synthesis: TOXIC (viability) ([3]; HL-60, 20 μg/mL, 48 h): TOXIC; effect on HL-60 cells (in words) [3]: virtually no effect
Cc1cc2c(c(C)c1O)C(C)CN2C(=O)C(C)C (stereo not drawn) [Compound 11b, N-Isobutyryl-5-hydroxy-3,4,6-trimethylindoline]	0	21	21	24	26	47	33	0	0	0	0	22	36	53	0	–	inhibition of proliferation (in words) ([1]; MB-435, 10 μg/mL): significantly inhibited the proliferation; inhibition of proliferation (in words) ([2]; MCF-7, 5 μg/mL): significantly inhibited the proliferation; effect on HL-60 cells (in words) [3]: virtually no effect
Cc1cc2c(c(C)c1O)C(C)CN2C(=O)C(C)(C)C (stereo not drawn) [Compound 11c, N-Pivaloyl-5-hydroxy-3,4,6-trimethylindoline]	13	12	20	18	1	9	31	0	0	0	0	12	31	43	0	–	–
CC(=O)Oc1c(C)cc2c(c1C)C(C)CN2C(=O)C(C)C (stereo not drawn) [Compound 12b, N-Isobutyryl-5-acetoxy-3,4,6-trimethylindoline]	1	19	32	20	47	38	58	0	2	32	67	24	41	70	46	–	inhibition of proliferation (in words) ([1]; MB-435, 5-20 μg/mL): significantly inhibited the proliferation; inhibition of proliferation (in words) ([2]; MCF-7, 5-20 μg/mL): significantly inhibited the proliferation; inhibition of proliferation (in words) ([3]; HL-60, 5-20 μg/mL): significantly inhibited the proliferation
COc1c(C)cc2c(c1C)C(C)CN2C(=O)C(C)C (stereo not drawn) [Compound 13, N-Isobutyryl-5-methoxy-3,4,6-trimethylindoline]	4	-4	8	–	–	–	–	0	10	15	27	17	45	–	53	inhibited the proliferation	inhibition of proliferation (in words) ([1]; MB-435, 20 μg/mL): inhibited the proliferation
CC(=O)N1CC(C)(C)c2c1cc(C)c(O)c2C [Compound 16, N-Acetyl-5-hydroxy-3,3,4,6-tetramethylindoline]	0	1	9	–	–	–	–	0	0	11	11	18	31	–	15	–	inhibition of proliferation (in words) ([1]; MB-435, 5-20 μg/mL): significantly inhibited the proliferation; inhibition of proliferation (in words) ([3]; HL-60, 5-20 μg/mL): significantly inhibited the proliferation
Cc1cc2c(c(C)c1O)C(C)(C)CN2C(=O)C(C)(C)C [Compound 20, N-Pivaloyl-5-hydroxy-3,3,4,6-tetramethylindoline]	-1	-5	-1	–	–	–	–	2	6	18	33	-13	31	–	63	inhibited the proliferation	inhibition of proliferation (in words) ([1]; MB-435, 20 μg/mL): inhibited the proliferation
CC(C)(C)c1cc2c(c(C(C)(C)C)c1O)CC(=O)O2 [Compound 24, 4,6-Di-tert-butyl-2,3-dihydro-5-hydroxy-2(3H)-benzofuranone]	13	5	29	0	4	25	85	7	0	5	30	85	97	97	47	significantly inhibited the proliferation	inhibition of proliferation (in words) ([1]; MB-435, 10 μg/mL): significantly inhibited the proliferation; inhibition of proliferation (in words) ([2]; MCF-7, 10 μg/mL): significantly inhibited the proliferation
